Experimental data taken from publication PMC12091851, “Replacing a Cereblon Ligand by a DDB1 and CUL4 Associated Factor 11 (DCAF11) Recruiter Converts a Selective Histone Deacetylase 6 PROTAC into a Pan‐Degrader” (Chemmedchem, 2025).

Target: T1, HDAC6 (Homo sapiens, UniProt Q9UBN7)
T1 sequence (Q9UBN7 1-1215): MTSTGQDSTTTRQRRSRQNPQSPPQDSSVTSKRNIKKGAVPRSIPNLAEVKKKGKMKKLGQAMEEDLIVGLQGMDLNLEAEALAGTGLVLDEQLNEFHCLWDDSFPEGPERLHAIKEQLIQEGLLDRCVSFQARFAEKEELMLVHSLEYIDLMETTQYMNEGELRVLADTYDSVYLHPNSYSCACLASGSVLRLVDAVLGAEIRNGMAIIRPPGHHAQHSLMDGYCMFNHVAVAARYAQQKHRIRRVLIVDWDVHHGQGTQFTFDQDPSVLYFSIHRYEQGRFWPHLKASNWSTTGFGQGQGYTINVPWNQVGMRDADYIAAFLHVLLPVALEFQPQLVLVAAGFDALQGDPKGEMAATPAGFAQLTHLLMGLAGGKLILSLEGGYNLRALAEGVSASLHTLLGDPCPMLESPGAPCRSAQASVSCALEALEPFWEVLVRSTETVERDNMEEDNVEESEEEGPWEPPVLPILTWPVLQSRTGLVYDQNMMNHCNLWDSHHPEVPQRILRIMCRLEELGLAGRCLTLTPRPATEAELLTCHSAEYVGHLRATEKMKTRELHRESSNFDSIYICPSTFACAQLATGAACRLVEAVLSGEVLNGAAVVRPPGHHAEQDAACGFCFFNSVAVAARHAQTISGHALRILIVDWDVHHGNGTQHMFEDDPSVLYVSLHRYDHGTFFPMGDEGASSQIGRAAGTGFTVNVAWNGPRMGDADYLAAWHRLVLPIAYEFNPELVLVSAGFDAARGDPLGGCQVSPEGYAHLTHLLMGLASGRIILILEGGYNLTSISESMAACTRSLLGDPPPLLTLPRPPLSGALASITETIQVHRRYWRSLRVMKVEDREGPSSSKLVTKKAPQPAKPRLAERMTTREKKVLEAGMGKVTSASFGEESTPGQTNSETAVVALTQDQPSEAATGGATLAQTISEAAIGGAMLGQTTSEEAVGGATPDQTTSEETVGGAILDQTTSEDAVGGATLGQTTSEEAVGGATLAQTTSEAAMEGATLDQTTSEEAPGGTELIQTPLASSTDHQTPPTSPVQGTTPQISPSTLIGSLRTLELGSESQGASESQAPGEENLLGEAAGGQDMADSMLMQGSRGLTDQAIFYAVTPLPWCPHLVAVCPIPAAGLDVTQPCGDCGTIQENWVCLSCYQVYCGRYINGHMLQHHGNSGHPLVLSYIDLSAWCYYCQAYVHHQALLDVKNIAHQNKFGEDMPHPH
Assay: HDAC enzyme inhibition assay
Format: biochemical
Set-up: purchased BPS Bioscience 50006
Experimental: Bio-Rad) to Immobilon-FL PVDF membranes (Catalog# IPFL00005, Mill ipore Merck, Burlington, MA, USA) at 1.0 A for 30 min and treated with 5% milk-powder solution for 1 h at room temperature […]
Signaling Technology) antibody solutions in 1:1000 –1:8000 dilutions at 4 °C overnight. […]
Significance testing was performed with a one -way analysis of variance (ANOVA). Dunnett’s post -hoc test was employed to obtain significance levels of each mean compared to a reference mean value.
2.7. HDAC Enzyme Inhibition Assay […]
[4] For test compounds and controls, serial dilutions of the respective DMSO stock solution in DMSO were prepared, and 1.0 μL /well of this serial dilution were transferred […]
into OptiPlate-96 black microplates (PerkinElmer, Waltham, […], USA). A volume of 4 µL/well assay […]
BSA) was added. In the case of HDAC1, 2, and 6, a volume of 35 μL/well of the fluorogenic substrate […]
The total assay volume of 50 μL (max. 2 % DMSO) was incubated at 37 °C for 90 min. Subsequently, 50 μL /well of trypsin (0.4 mg/mL) in trypsin buffer (50 mM Tris−HCl, pH 8.0, 100 mM NaCl) was added, followed by additional 30 min of incubation at […]
OPTIMA microplate reader (BMG labtech, Ortenburg, Germany). The half maximal inhibitory concentration (IC50) was determined by plotting dose response curves and nonlinear regression with GraphPad Prism (GraphPad Software).
2.8. MTT Cell Viability Assay […]

Row | IC50 | SMILES
1 | 0.053 ± 0.001 µM | O=C(CCCCCCNC(=O)c1ccc(NC(=O)CCCCCCCCCCCN(C(=O)CCl)C(C(=O)NCc2ccccc2)c2ccc(Cl)c(Cl)c2)cc1)NO (centres unmarked) [Compound 1j]
2 | 0.007 ± 0.001 µM | O=C(CCCCCCNC(=O)c1ccc(N(C(=O)CCl)C(C(=O)NCc2ccccc2)c2ccc(Cl)c(Cl)c2)cc1)NO (centres unmarked) [Compound 2]
